Consider 21 compounds from US6201006A, “Aromatic amidine derivatives useful as selective thrombin inhibitors” (C & C Research Laboratories, priority 1996, dated 2001).

SMILES strings stand for the structures.

For one test, the system named is trypsin. The test can be described thus: Inhibitory activity for trypsin. It is filed as biochemical.
The target in the next test is T1, human thrombin (Homo sapiens, UniProt P00734).
T1 construct: purchased Sigma T-6759
In words: Inhibitory activity for thrombin (chromogenic substrate hydrolysis, 405 nm). It is filed as biochemical. The conditions noted are these: for Selectivity (trypsin/thrombin): IC50 for trypsin divided by IC50 for thrombin; for IC50: human thrombin, 20 min, pH 8.0, N-benzoyl-Phe-Val-Arg-p-nitroanilide. As to the method:
20 μl of each compound of the present invention was dissolved in 50% methanol in various concentrations and then added to each well of a microplate, to each of which 160 μl of the reaction medium containing 125 mM NaCl, 50 mM Tris-HCl (pH 8.0) and 2 mM synthetic substrate (N-benzoyl-Phe-Val-Arg-p-nitroanilide, Sigma B-7632) were added. 20 μl of human thrombin solution (5 units/ml, Sigma T-6759, manufactured by Sigma Co.) containing 0.1% bovine serum albumin was added to each well to initiate the enzymatic reaction. After 20 minutes, the hydrolysis of substrate was determined by measuring the absorbance at 405 nm. […] The selectivity index was calculated by dividing the IC50 value for trypsin by the IC50 value for thrombin. The thrombin inhibitory activity and the trypsin inhibitory activity for the compound of the present invention are shown in the following Table 2.

As for `CCn1c(CC[C@@H]2CCCN2C(=O)[C@H]2CCCN2C(=O)[C@@H](N)CC(N)=O)cc2ccc(C(=N)N)cc21` [Compound 148, 1-ethyl-2-[2-[(S)-1-[[(R)-1-((S)-2-amino-3-carbamoylpropanoyl)pyrrolidin-2-yl]carbonyl]pyrrolidin-2-yl]ethyl]indole-6-carboxamidine], the IC50 in the test with trypsin amounted to 443 nM; against human thrombin, 23 nM. For the same compound, the “Selectivity (trypsin/thrombin)” value on human thrombin was found to be 19.2.

Take `CCn1c(CC[C@@H]2CCCN2C(=O)[C@H]2CCCN2C2CCOC2=O)cc2ccc(C(=N)N)cc21` (stereo partly drawn) [Compound 125, 1-ethyl-2-[2-[(S)-1-[[(R)-1-(2-oxo-3-oxolanyl)pyrrolidin-2-yl]carbonyl]pyrrolidin-2-yl]ethyl]indole-6-carboxamidine]: the IC50 in the test on trypsin was determined as 775 nM; against human thrombin, 22.3 nM. In addition, the “Selectivity (trypsin/thrombin)” value on human thrombin was 34.7.

In the case of `CCOC(=O)CCC(=O)N1CCC[C@@H]1C(=O)N1CCC[C@H]1CCc1cc2ccc(C(=N)N)cc2n1CC` [Compound 176, ethyl 4-[(R)-2-[[(S)-2-[2-(6-amidino-1-ethylindol-2-yl)ethyl]pyrrolidinyl]carbonyl]pyrrolidinyl]-4-oxobutanoate], on human thrombin, the “Selectivity (trypsin/thrombin)” value was found to be 20.7 and 21.7 nM corresponded to half-maximal inhibition (IC50).

`CCn1c(CC[C@@H]2CCCN2C(=O)[C@H](NS(C)(=O)=O)c2ccccc2)cc2ccc(C(=N)N)cc21` [Compound 37, 1ethyl-2-[2-[(S)-1-((R)-2-methylsulfonylamino-2-phenylacetyl)pyrrolidin-2-yl]ethyl]indole-6-carboxamidine] returned an IC50 on human thrombin of 5.4 nM.

At human thrombin, `CCn1c(CC[C@@H]2CCCN2C(=O)[C@H]2CCCN2C(=O)C2CCNCC2)cc2ccc(C(=N)N)cc21` [Compound 169, 1-ethyl-2-[2-[(S)-1-[[(R)-1-[(4-piperidinyl)carbonyl]pyrrolidin-2-yl]carbonyl]pyrrolidin-2-yl]ethyl]indole-6-carboxamidine] yielded an IC50 of 30.2 nM.

On human thrombin, `CCn1c(CC[C@@H]2CCCN2C(=O)C(C)N(CC(=O)O)C2CC2)cc2ccc(C(=N)N)cc21` (stereo partly drawn) [Compound 65, 2-[[2-[(S)-2-[2-(6-amidino-1-ethylindol-2-yl)ethyl]pyrrolidinyl]-1-methyl-2-oxoethyl]cyclopylamino]acetic acid] gave an IC50 of 22.1 nM.

Turning to `N=C(N)c1ccc2cc(CC[C@H]3CCCN3C(=O)Cc3ccccc3)ccc2c1` [Compound 244, 6-[2-[(S)-1-(2-phenylacetyl)pyrrolidine-2-yl]ethyl]naphthalene-2-carboxamidine], on human thrombin, half-maximal inhibition (IC50) was put at 53.6 nM.

For `CCn1c(CC[C@@H]2CCCN2C(=O)[C@H]2CCCN2CCCCC(=O)O)cc2ccc(C(=N)N)cc21` [Compound 129, 5-[(R)-2-[[(S)-2-[2-(6-amidino-1-ethylindol-2-yl)-ethyl]pyrrolidinyl]carbonyl]pyrrolidinyl]pentanoic acid], on human thrombin, the “Selectivity (trypsin/thrombin)” value is on record as 10.6 and 13.1 nM corresponded to half-maximal inhibition (IC50).

As to `CCOC(=O)C(CC)N1CCC[C@@H]1C(=O)N1CCC[C@H]1CCc1cc2ccc(C(=N)N)cc2n1CC` (stereo partly drawn) [Compound 110, ethyl 2-[(R)-2-[[(S)-2-[2-(6-amidino-1-ethylindol-2-yl)ethyl]pyrrolidinyl]carbonyl]pyrrolidinyl]butanoate], at human thrombin, the “Selectivity (trypsin/thrombin)” value is listed as 38.6 and it took 37.7 nM to reach half-maximal inhibition (IC50).

On human thrombin, `CCCC(CCC)C(=O)N1CCC[C@@H]1C(=O)N1CCC[C@H]1CCc1cc2ccc(C(=N)N)cc2n1CC` [Compound 173, 1-ethyl-2-[2-[(S)-1-[[(R)-1-(2-propylpentanoyl)pyrrolidin-2-yl]carbonyl]pyrrolidin-2-yl]ethyl]indole-6-carboxamidine] registered an IC50 of 34.6 nM.

`CCn1c(CC[C@@H]2CCCN2C(=O)C2CCCCN2CC(=O)OC)cc2ccc(C(=N)N)cc21` (stereo partly drawn) [Compound 192, methyl-2-[2-[[(S)-2-[2-(6-amidino-1-ethylindol-2-yl)ethyl]pyrrolidinyl]carbonyl]piperidinyl]acetate] gave an IC50 at human thrombin of 33.8 nM.

As for `CCn1c(CC[C@@H]2CCCN2C(=O)[C@H]2CCCN2CC(=O)NC2CC2)cc2ccc(C(=N)N)cc21` [Compound 115, 1-ethyl-2-[2-[(S)-1-[[(R)-1-[(N-cyclopropylcarbamoyl)methyl]pyrrolidin-2-yl]carbonyl]pyrrolidin-2-yl]-ethyl]indole-6-carboxamidine], 31.8 nM corresponded to half-maximal inhibition on human thrombin (IC50).

Regarding `CCOC(=O)[C@H](C)NC(=O)CN1CCC[C@@H]1C(=O)N1CCC[C@H]1CCc1cc2ccc(C(=N)N)cc2n1CC` [Compound 116, ethyl (s)-2-[2-[(R)-2-[[(S)-2-[2-(6-amidino-1-ethylindol-2-yl)ethyl]pyrrolidinyl]carbonyl]pyrrolidinyl]-acetylamino]propanoate], on human thrombin, the “Selectivity (trypsin/thrombin)” value came to 27.4 and the IC50 is 31.7 nM.

`CCn1c(CC[C@@H]2CCCN2C(=O)[C@H](NCC(=O)O)c2ccccc2)cc2ccc(C(=N)N)cc21` [Compound 40, 2-[[(R)-2-[2-(S)-2-[2-(6-amidino-1-ethylindol-2-yl)ethyl]pyrrolidinyl]-2-oxo-1-phenylethyl]amino]acetic acid]: the IC50 against human thrombin worked out at 7.95 nM.

Turning to `CCn1c(CC[C@@H]2CCCN2C(=O)[C@H]2CCCN2C(=O)C(C)CN)cc2ccc(C(=N)N)cc21` (stereo partly drawn) [Compound 156, 1-ethyl-2-[2-[(S)-1-[[(R)-1-(3-amino-2-methylpropanoyl)pyrrolidin-2-yl]carbonyl]pyrrolidin-2-yl]ethyl]indole-6-carboxamidine], the midpoint of inhibition at human thrombin, the IC50, lay at 28.6 nM.

The compound `CCn1c(CC[C@@H]2CCCN2C(=O)CC2CCCCC2)cc2ccc(C(=N)N)cc21` [Compound 46, 1ethyl-2-[2-[(S)-1-(2-cyclohexylacetyl)pyrrolidin-2-yl]ethyl]indole-6-carboxamidine] returned an IC50 on human thrombin of 28.9 nM.

On human thrombin, `CCOC(=O)Cn1c(CC[C@@H]2CCCN2C(=O)[C@H]2CCCN2C(C)=O)cc2ccc(C(=N)N)cc21` [Compound 222, ethyl 2-[2-[2-[(S)-1-[((R)-1-acetylpyrrolidin-2-yl)carbonyl]pyrrolidin-2-yl]ethyl]-6-amidinoindolyl]acetate] returned an IC50 of 11.4 nM.

Turning to `Cn1c(CC[C@@H]2CCCN2Cc2c(C(N)=O)sc3ccccc23)cc2ccc(C(=N)N)cc21` [Compound 9], at human thrombin, half-maximal inhibition (IC50) was put at 33.9 nM.

The compound `CCOC(=O)C[C@H](N)C(=O)N1CCC[C@@H]1C(=O)N1CCC[C@H]1CCc1cc2ccc(C(=N)N)cc2n1CC` [Compound 147, ethyl 4-[(R)-2-[[(S)-2-[2-(6-amidino-1-ethylindol-2-yl)ethyl]pyrrolidinyl]carbonyl]pyrrolidinyl]-(S)-3-amino-4-oxobutanoate] registered an IC50 against human thrombin of 25.5 nM.

`CCn1c(CC[C@@H]2CCCN2C(=O)[C@H]2CCCN2C(=O)CC(C)N)cc2ccc(C(=N)N)cc21` (stereo partly drawn) [Compound 157, 1-ethyl-2-[2-[(S)-1-[[(R)-1-(3-amino-butanoyl)pyrrolidin-2-yl]carbonyl]pyrrolidin-2-yl]ethyl]indole-6-carboxamidine] displayed an IC50 against human thrombin of 26.9 nM.

The compound `CCC(N)C(=O)N1CCC[C@@H]1C(=O)N1CCC[C@H]1CCc1cc2ccc(C(=N)N)cc2n1CC` (stereo partly drawn) [Compound 144, 1-ethyl-2-[2-[(S)-1-[[(R)-1-(2-aminobutanoyl)pyrrolidin-2-yl]carbonyl]pyrrolidin-2-yl]ethyl]indole-6-carboxamidine] showed an IC50 against human thrombin of 25.3 nM.

In general, IC50 refers to the concentration that gives 50% inhibition.
